Here are results for two compounds from the NIST ThermoML archive (doi:10.1016/j.fluid.2014.07.021).

For the series the following is noted: Crystal; DTA.

± gives the expanded uncertainty stated by the source.

In the case of `CCCCCCCCCCCCCCCCCCCCO` [1-eicosanol], the Normal melting temperature turned out to be 64 ± 2 °C. Then `CCCCCCCCCCCCCCO` [1-tetradecanol], with 38 ± 2 °C.
